Data set [1] has as its system Pig-A mutant phenotype RBCs and RETs.
The test system is the same in data set [2]. Description: Pig-A mutation assay, technical replicates (Example 1): flow cytometric scoring of CD59-negative RBCs/RETs before and after immunomagnetic separation. As to conditions: 60 mg/kg/day oral gavage days 1-3, blood day 29. Background: Flow cytometry measures light scatter and fluorescence of single cells or particles in a stream.
The test system is the same in data set [3]. Description: Pig-A mutation assay, spiking experiment (Example 2). Conditions: blood day 35.
The nature of data set [4]: Mortality in 28-day 1,3-PS study. In kind it is in vivo, Sprague Dawley rat. As to conditions: 50 mg/kg/day oral gavage, group of six male rats. As for the experimental part: Groups consisting of six male Sprague Dawley rats (7-8 weeks old) were treated on twenty-eight consecutive days (i.e., days 1 through 28) with either water (vehicle), 12.5 mg 1,3-PS per kilogram body weight per day, 25 mg 1,3-PS per kilogram body weight per day, or 50 mg 1,3-PS per kilogram body weight per day via oral gavage. […] Tail vein blood specimens were collected on day −1 (i.e., one day before the start of treatment), and again on days 15, 29, and 42.

Another data set deals with reticulocytes. Put plainly: Percentage of reticulocytes among total erythrocytes (bone marrow toxicity), pre-magnetic field analysis.
[5] abbreviates: 28 consecutive days oral gavage, 6 male rats per group, maximum observed on d29.
Setting [6] is: 28 consecutive days oral gavage, 6 male rats per group, maximum observed on d42.
Setting [7] is: calculated from pre- and post-magnetic field ratios, technical replicates, listed as PS.
Where [8] appears, read: post-magnetic field, 4 min acquisition, technical replicates, listed as PS.
The mark [9] stands for this setting: post-magnetic field, technical replicates, listed as PS.
[10] abbreviates: pre-magnetic field, 3 min acquisition, technical replicates of one rat, listed as PS.
[11] abbreviates: "100" sample: 40 mg/kg/day 1,3-PS days 1-14, from pre- and post-magnetic field ratios (Table VI), listed as 100.
Setting [12] is: "100" sample: 40 mg/kg/day 1,3-PS days 1-14, post-magnetic field, 4 min, listed as 100.
The mark [13] stands for this setting: "100" sample: 40 mg/kg/day 1,3-PS days 1-14, post-magnetic field, listed as 100.

Where “and” joins values, the source holds several entries; their conditions need not be identical. Equal entries are not always repeated. Where two headings read alike, the source gives them in different places.

In the case of `CC(=O)Nc1ccc2c(c1)Cc1ccccc1-2` [2-Acetylaminofluorene], the “Maximum Avg. Mutant Cell Freq., Mutant RBCs” value in data set [1] (setting [5]) is 58 Mutant RBCs (d29) × 10^−6. In data set [1] (setting [6]), the “Maximum Avg. Mutant Cell Freq., Mutant RETs” value is 50 Mutant RETs (d42); × 10^−6.

Take `O=C(O)CCCc1ccc(N(CCCl)CCCl)cc1` [Chlorambucil]: in data set [1] (setting [6]), the “Maximum Avg. Mutant Cell Freq., Mutant RBCs” value is 21 Mutant RBCs (d42) × 10^−6 and the “Maximum Avg. Mutant Cell Freq., Mutant RETs” value is listed as 40 Mutant RETs (d42); × 10^−6.

With `Cn1cnc([N+](=O)[O-])c1Sc1ncnc2nc[nH]c12` [Azathioprine], in data set [1] (male, Sprague Dawley, rat, in vivo, po, 29 day), the “Maximum Avg. Mutant Cell Freq., Mutant RETs” value is 13 Mutant RETs (d29); × 10^−6. For the same compound, in data set [1] (male, Sprague Dawley, rat, in vivo, po, 42 day), the “Maximum Avg. Mutant Cell Freq., Mutant RBCs” value is on record as 4 Mutant RBCs (d42) × 10^−6.

On to `O=P1(N(CCCl)CCCl)NCCCO1` (stereo not drawn) [Cyclophosphamide], for which the “Maximum Avg. Mutant Cell Freq., Mutant RETs” value in data set [1] (setting [5]) is recorded as 5 Mutant RETs (d29); × 10^−6. Moreover, the “Maximum Avg. Mutant Cell Freq., Mutant RBCs” value in data set [1] (setting [6]) is 3 Mutant RBCs (d42) × 10^−6.

For the compound `N[C@@H](Cc1ccc(N(CCCl)CCCl)cc1)C(=O)O` [Melphalan], in data set [1] (setting [6]), the “Maximum Avg. Mutant Cell Freq., Mutant RBCs” value is 23 Mutant RBCs (d42) × 10^−6 and the “Maximum Avg. Mutant Cell Freq., Mutant RETs” value is listed as 33 Mutant RETs (d42); × 10^−6.

Take `O=S1(=O)CCCO1` [1,3-Propane Sultone, 1,3-propane sultone]: the “Frequencies of mutant phenotype RBCs and RETs versus vehicle (in words)” value in data set [2] was “clearly led to elevated frequencies of mutant phenotype RBCs and RETs”. The “Mutant RBCs per 10^6 Total RBCs” value in data set [2] (setting [7]) was 61.1 per 10^6 Total RBCs and 65.7 per 10^6 Total RBCs and 55 per 10^6 Total RBCs; in data set [3] (setting [11]) it was 30 per 10^6 Total RBCs and 34.1 per 10^6 Total RBCs. Moreover, the “Mutant RETs per 10^6 Total RETs” value is 22 per 10^6 Total RETs and 16.6 per 10^6 Total RETs and 17.7 per 10^6 Total RETs in data set [2] (setting [7]); 25.2 per 10^6 Total RETs and 31.2 per 10^6 Total RETs in data set [3] (setting [11]). The “Mutant NCEs (events counted), POST-Magnetic Field Analyses” value in data set [2] (setting [8]) is 6,466 and 7,590 and 7,054; in data set [3] (setting [12]) it was 3,304 and 3,192. Moreover, the “Mutant RETs (events counted), POST-Magnetic Field Analyses” value is 95 and 79 and 94 in data set [2] (setting [8]); 173 and 182 in data set [3] (setting [12]). In addition, the “Mutant RBC:Bead Ratio, POST-Magnetic Field Analyses” value was 0.4138 and 0.4132 (2×) in data set [2] (setting [9]); 0.2402 and 0.2497 in data set [3] (setting [13]). The “Mutant RET:Bead Ratio, POST-Magnetic Field Analyses” value in data set [2] (setting [9]) was 0.00599 and 0.00426 and 0.3748; in data set [3] (setting [13]) it was 0.01195 and 0.01347. Moreover, the “Mutant NCEs (events counted), PRE-Magnetic Field Analyses” value in data set [2] (setting [10]) was 83 and 75 and 64; in data set [3] ("100" sample: 40 mg/kg/day 1,3-PS days 1-14, pre-magnetic field, 3 min, listed as 100) it was 36 and 31. For the same compound, the “Mutant RETs (events counted), PRE-Magnetic Field Analyses” value in data set [2] (setting [10]) is 1 (2×) and 2; in data set [3] ("100" sample: blood of rat given 40 mg/kg/day 1,3-PS oral gavage days 1-14, pre-magnetic field, 3 min), 1. Moreover, in data set [1] (12.5, 25, 50 (reduced to 37.5) mg/kg/day for 28 days, Day 15 through Day 42, FIG. 5C), the “Mutant RBC frequency versus vehicle-treated rats (in words)” value is “significantly higher than those observed in vehicle-treated rats from Day 15 through Day 42”. Moreover, in data set [1] (12.5, 25, 50 (reduced to 37.5) mg/kg/day for 28 days, days 15, 29, 42, FIG. 5B, Dunnett's t-test p<0.05), the “Mutant RET frequency versus vehicle controls (in words)” value is reported as “each dose group was significantly elevated relative to vehicle controls at every time point studied”. The “Maximum Avg. Mutant Cell Freq., Mutant RETs” value in data set [1] (setting [5]) is 106 Mutant RETs (d29); × 10^−6. Further, the “Maximum Avg. Mutant Cell Freq., Mutant RBCs” value in data set [1] (setting [6]) is reported as 72 Mutant RBCs (d42) × 10^−6. Also, the “Mutant RBCs per 10^6 Total RBCs (Post-Column)” value in data set [3] ("100" sample: 40 mg/kg/day 1,3-PS days 1-14, post-column, avg 112,632,575 RBCs interrogated per sample, listed as 100) is 30 per 10^6 Total RBCs and 34.1 per 10^6 Total RBCs. Also, in data set [3] ("100" sample: 40 mg/kg/day 1,3-PS days 1-14, pre-column, avg 1,323,693 RBCs interrogated per sample), the “Mutant RBCs per 10^6 Total RBCs (Pre-Column)” value is 27 per 10^6 Total RBCs. Moreover, the Mortality result in data set [4] is on record as “one rat in the high dose group died on day 11”. Moreover, the “% RET” value in the data set on reticulocytes (60 mg/kg/day oral gavage days 1-3, blood day 29, technical replicates, listed as PS) is 4.02% and 4.08% (2×); in the data set with reticulocytes ("100" sample: 40 mg/kg/day 1,3-PS oral gavage days 1-14, blood day 35, listed as 100), 5.92% and 5.9%. In addition, the “% RET versus vehicle (in words)” value in the data set with reticulocytes (12.5, 25, 50 (reduced to 37.5) mg/kg/day for 28 days, Day 15, FIG. 5A) is “reduced in a dose-dependent manner”.

As to `S=P(N1CC1)(N1CC1)N1CC1` [Thiotepa], the “Maximum Avg. Mutant Cell Freq., Mutant RETs” value in data set [1] (setting [5]) is listed as 79 Mutant RETs (d29); × 10^−6. In addition, the “Maximum Avg. Mutant Cell Freq., Mutant RBCs” value in data set [1] (setting [6]) is reported as 69 Mutant RBCs (d42) × 10^−6.

Values taken from patent publication US9133505B2 (priority 2010, dated 2015).
